Assays:
[1] = tested on: papain-induced allergic airway inflammation; assay: Papain-induced allergic airway inflammation, Nmb i.t.; format: in vivo, mouse; conditions: papain-challenged mice, Nmb i.t. vs PBS, lung
Experimental: FIGS. 7A-7I. Nmb treatment is sufficient to suppress allergic airway inflammation. Mice challenged with papain were treated with PBS or Nmb (i.t.) and (A) Lung ILC2s, (B) IL-5+ and IL-13+ ILC2s, and (C) eosinophils were evaluated. […] Mesenteric lymph nodes (MLNs) were isolated on day 7 post-Nb and single cells suspensions were treated with anti-CD3 and anti-CD28 in the presence or absence of Nmb for 48 hours and (E), IL-5 and (F) IL-13 were quantified in cell-free supernatants by ELISA. (F-I), Modified versions of Nmb (see Table 2) were tested for their ability to alter IL-5 and IL-13 production from anti-CD3 and anti-CD28 MLN cells isolated on day 7 post-Nb. P values were determined by two-tailed Student's t-tests. Blue asterisks represent comparisons between media treated controls and native Nmb. Red asterisks represent comparisons between media treated controls and modified version of Nmb as described in Table 2. (*,p<0.05), (**,p<0.01), (***,p<0.001) or (F-I).
A well-established model of papain-induced allergic airway inflammation known to be dependent on ILC2s was utilized (19, 20). Mice treated with papain presented with elevated percentages of ILC2s (FIG. 7A), elevated expression of IL-5 and IL-13 by ILC2s (FIG. 7B) and lung eosinophilia (FIG. 7C). […] Thus, Nmb negatively regulate ILC2 responses both in vivo and in vitro.

[2] = tested on: ILC2s; assay: RNA sequencing of ILC2s cultured overnight with or without Nmb; format: cell-based, mouse; conditions: gene expression, NMB treated vs untreated ILC2s
Experimental: To gain further insight into how NMB might alter lymphocyte activation, ILC2s were sort-purified from the lungs of Nb-infected mice and cultured overnight with survival cytokines (IL-2, IL-7), with or without Nmb. Then, gene expression was evaluated by RNA sequencing analysis. […] This allowed for identification of NMB signaling pathways.

[3] = tested on: lung ILC2s; assay: Sort-purified lung ILC2 in vitro cultures with Nmb, IL-5/IL-13 ELISA; format: cell-based, mouse
Experimental: FIGS. 6A-6E. Nmb suppresses type 2 cytokine responses. (A), Nb-infected mice were treated with PBS or Nmb (i.t.) and ILC2s in the BAL were quantified. (B) Expression of IL-5 and IL-13 in the lungs of PBS or Nmb-treated mice was determined on day 7 post-Nb by Real-time PCR. (C) Eosinophils in the BAL were quantified and (D) worm burdens were determined on day 7 post-Nb infection. ILC2s were sort-purified from the lungs of control or baso-dep mice on day 7 post-Nb and cultured (O/N) with IL-2 and IL-7 in the presence or absence of Nmb and (E) IL-5 and IL-13 levels in culture supernatants were determined by ELISA. P values were determined by two-tailed Student's t-tests.
FIGS. 10A-10B. NMB inhibits type 2 cytokine production from IL-33 activated ILC2. ILC2s were sort-purified from the lungs of Nb-infected mice (day 7) and cultured with survival cytokines (IL-2, IL-7) and in the presence or absence of Nmb and/or IL-33. Following overnight culture, supernatants were tested for the presence of IL-5 (FIG. 10A) and IL-13 (FIG. 10B) by standard ELISA. Statistical comparisons were done using a Student's t-test.
Lung cells were isolated from the lungs of WT or basophil-depleted mice on day 7 post-N. brasiliensis infection. ILC populations (CD45^+Lin^−CD90^+CD127^+) were sort-purified and 10,000 cells were cultured in the presence of 100 ng/mL of IL-2, IL-7 and vehicle (PBS) or 10 μg/mL of Neuromedin B for 24 hours. IL-5 and IL-13 were quantified in cell-free supernatants by ELISA.
These studies illustrate that Nb-induced ILC2 responses are exaggerated in the absence of basophils. […] However, ILC2 responses are also known to be regulated by several other factors following a Nb challenge. Specifically, IL-33 is reported to be a critical regulator of lung ILC2 responses post-Nb infection (24). To address whether altered ILC2 activity in the absence of basophils is a result of reduced availability of IL-33, rather than alterations in NMB-NMBR signaling pathways, ILC2s were sort-purified from the lungs of Nb-infected mice (day 7) and cultured with survival cytokines (IL-2, IL-7) and/or IL-33 and NMB. Following overnight culture, supernatants were tested for the presence of IL-5 and IL-13 by standard ELISA. Statistical comparisons were done using a Student's t-test.

[4] = ILC2s day 7 post-Nb, IL-2 and IL-7, overnight, no IL-33, ELISA
[5] = ILC2s from basophil-deficient Nb-infected mice, overnight with IL-2 and IL-7, ELISA
[6] = ILC2s from basophil-sufficient Nb-infected mice, overnight with IL-2 and IL-7, ELISA

For H2N-GNLWATGHFM-amide [Nmb], the “papain-induced ILC2 responses” value [1] was “sufficient to reduce”, the papain-induced eosinophilia [1] was “sufficient to reduce” and the “Fold change Gm10031” value [2] was −6.203. For the same substance, the “Fold change Gm14288” value [2] was −25.43, the “Fold change Hgs_2” value [2] was −1.893 and the “Fold change Ighg1” value [2] was 253.6. The “Fold change Ighg2b” value [2] was 276, the “Fold change Igkv1-135” value [2] was 47.49 and the “Fold change Igkv8-28” value [2] was 43.8. The “Fold change Igkv17-127” value [2] was 800.9, the “Fold change Il1b” value [2] was 3.263 and the “Fold change Klra7” value [2] was −1.984. The “Fold change Ly6c2” value [2] was −2.369, the “Fold change Mcpt2” value [2] was −11.86 and the “Fold change Nkg7” value [2] was −1.895. The “Fold change P2rx7” value [2] was −2.149, the “Fold change Serpinb2” value [2] was 5.696 and the “Fold change Sprr2a2” value [2] was 37.85. For the same substance, the “Fold change Tsix” value [2] was 2.833, the “Fold change Xist” value [2] was 3.077 and the “type 2 cytokines (IL-5 and IL-13) from IL-33 activated ILC2s” value ([3]; ILC2s day 7 post-Nb, IL-2, IL-7 and IL-33, overnight, ELISA) was “significant reductions”. The “IL-5 production from ILC2s at steady-state” value [3, 4] was “significantly reduce”, the “IL-13 production from ILC2s at steady-state” value [3, 4] was “significantly reduce” and the “IL-5 production by ILC2s (significantly reduced or not)” value [3, 5] was “not”. The “IL-13 production by ILC2s (significantly reduced or not)” value [3, 5] was “not”, the “IL-5 production by ILC2s” value [3, 6] was “significantly reduced” and the “IL-13 production by ILC2s” value [3, 6] was “significantly reduced”.

— patent US20260174829A1, “METHODS OF REDUCING TYPE 2 CYTOKINE-MEDIATED INFLAMMATION USING NEUROMEDIN PEPTIDES” (Rutgers, The State University of New Jersey, priority 2018, published 2026)
